Measured values published in patent US20140249135A1, “PIM KINASE INHIBITORS AND METHODS OF THEIR USE” (NOVARTIS AG, priority 2007, published 2014).
Read-outs that look alike come from different tables or passages of the source.

Tests used:
Type in all cases: biochemical
Pim1 kinase = Pim1 kinase (Homo sapiens, UniProt P11309); assay: Pim1 ATP depletion assay;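 note: Luciferase-luciferin luminescence readout of residual ATP after PIM1 transfers phosphate to a peptide substrate, 40 µM ATP added, reaction run to roughly half ATP consumption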
Pim3 kinase = Pim3 kinase (Homo sapiens, UniProt Q86V86); assay: Pim3 ATP depletion assay; conditions: read-out: PIM3 IC50
Pim2 kinase = Pim2 kinase (Homo sapiens, UniProt Q9P1W9); assay: Pim2 ATP depletion assay; conditions: read-out: PIM2 IC50;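 note: Luciferase-based luminescent readout of ATP remaining after PIM2 phosphorylates a BAD peptide, final 5 nM enzyme, 4 µM ATP, 10 µM peptide, 2.5% DMSO, run to roughly half ATP consumption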
[1] = Pim1 ATP depletion assay, read-out: PIM1 IC50

Measured: IC50

Chain of Pim2 kinase (Q9P1W9 whole entry): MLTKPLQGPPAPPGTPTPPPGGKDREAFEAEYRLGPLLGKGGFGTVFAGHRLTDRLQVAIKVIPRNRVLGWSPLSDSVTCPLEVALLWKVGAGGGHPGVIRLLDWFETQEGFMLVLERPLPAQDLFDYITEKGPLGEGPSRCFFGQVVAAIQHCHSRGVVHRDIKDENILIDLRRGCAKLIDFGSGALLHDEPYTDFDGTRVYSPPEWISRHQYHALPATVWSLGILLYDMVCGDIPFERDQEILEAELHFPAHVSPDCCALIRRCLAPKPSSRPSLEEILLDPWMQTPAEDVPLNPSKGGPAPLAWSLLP
Chain of Pim1 kinase (P11309 whole entry): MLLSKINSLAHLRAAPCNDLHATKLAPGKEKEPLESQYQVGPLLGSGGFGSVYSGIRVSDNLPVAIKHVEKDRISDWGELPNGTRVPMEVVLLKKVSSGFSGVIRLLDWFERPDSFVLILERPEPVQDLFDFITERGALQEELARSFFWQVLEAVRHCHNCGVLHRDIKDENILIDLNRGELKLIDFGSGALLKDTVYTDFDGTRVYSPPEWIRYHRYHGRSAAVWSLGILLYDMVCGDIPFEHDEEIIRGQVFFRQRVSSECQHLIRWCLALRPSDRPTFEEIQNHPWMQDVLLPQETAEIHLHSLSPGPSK

Cc1ccc(-c2ccc(N)c(C(=O)Nc3cnccc3N3CCC[C@H](N)C3)n2)nc1 [Example 725, 5-Amino-5′-methyl-[2,2′]bi-pyridinyl-6-carboxylic acid (3-amino-3,4,5,6-tetrahydro-2H-[1,4′]bipyridinyl-3′-yl)-amide]
< 1 µM: Pim1 kinase; [1] | Pim3 kinase | Pim2 kinase

Cc1cccc(-c2ccc(N)c(C(=O)Nc3cnccc3N3CCC[C@H](N)C3)n2)n1 [Example 726, 5-Amino-6′-methyl-[2,2′]bi-pyridinyl-6-carboxylic acid (3-amino-3,4,5,6-tetrahydro-2H-[1,4′]bipyridinyl-3′-yl)-amide]
< 1 µM: Pim1 kinase; [1] | Pim3 kinase | Pim2 kinase

Nc1ccc(-c2ccc(F)cn2)nc1C(=O)Nc1cnccc1N1CCC[C@H](N)C1 [Example 727, 5-Amino-5′-fluoro-[2,2′]bi-pyridinyl-6-carboxylic acid (3-amino-3,4,5,6-tetrahydro-2H-[1,4′]bipyridinyl-3′-yl)-amide]
< 1 µM: Pim1 kinase; [1] | Pim3 kinase | Pim2 kinase

Nc1nccc(-c2ccc(N)c(C(=O)Nc3cnccc3N3CCC[C@H](N)C3)n2)n1 [Example 728, 3-Amino-6-(2-amino-pyrimidin-4-yl)-pyridine-2-carboxylic acid (3-amino-3,4,5,6-tetrahydro-2H-[1,4′]bipyridinyl-3′-yl)-amide]
< 1 µM: Pim1 kinase | Pim3 kinase | Pim2 kinase

Nc1cnc(-c2ccc(N)c(C(=O)Nc3cnccc3N3CCC[C@H](N)C3)n2)cn1 [Example 729, 3-Amino-6-(5-amino-pyrazin-2-yl)-pyridine-2-carboxylic acid (3-amino-3,4,5,6-tetrahydro-2H-[1,4′]bipyridinyl-3′-yl)-amide]
< 1 µM: Pim1 kinase; [1] | Pim3 kinase | Pim2 kinase

Nc1ccc(-c2ccccn2)nc1C(=O)Nc1cnccc1N1CCC[C@H](N)C1 [Example 730, 5-Amino-[2,2′]bipyridinyl-6-carboxylic acid (3-amino-3,4,5,6-tetrahydro-2H-[1,4′]bi-pyridinyl-3′-yl)-amide]
< 1 µM: Pim1 kinase; [1] | Pim3 kinase | Pim2 kinase

COc1nc(-c2ccc(N)c(C(=O)Nc3cnccc3N3CCC[C@H](N)C3)n2)cnc1N [Example 731, 3-Amino-6-(5-amino-6-methoxy-pyrazin-2-yl)-pyridine-2-carboxylic acid (3-amino-3,4,5,6-tetrahydro-2H-[1,4′]bi-pyridinyl-3′-yl)-amide]
< 1 µM: Pim1 kinase; [1] | Pim3 kinase | Pim2 kinase

CC(C)NC(=O)c1ccc(F)c(-c2ccc(N)c(C(=O)Nc3cnccc3N3CC[C@@H](O)[C@H](N)C3)n2)c1F [Example 732, 3-Amino-6-(2,6-difluoro-3-isopropylcarbamoyl-phenyl)-pyridine-2-carboxylic acid (3-amino-4-hydroxy-3,4,5,6-tetra-hydro-2H-[1,4′]bipyridinyl-3′-yl)-amide]
< 1 µM: Pim1 kinase; [1] | Pim3 kinase | Pim2 kinase

CC(C)NC(=O)c1ccc(F)c(-c2ccc(N)c(C(=O)Nc3cnccc3N3CC[C@@H](F)[C@H](N)C3)n2)c1F [Example 733, 3-Amino-6-(2,6-difluoro-3-isopropylcarbamoyl-phenyl)-pyridine-2-carboxylic acid (3-amino-4-fluoro-3,4,5,6-tetra-hydro-2H-[1,4′]bipyridinyl-3′-yl)-amide]
< 1 µM: Pim1 kinase; [1] | Pim3 kinase | Pim2 kinase

Nc1ccc(-c2ncccc2F)nc1C(=O)Nc1cnccc1N1CCC(N)C(O)C1 (stereo not drawn) [Example 734, 5-Amino-3′-fluoro-[2,2′]bi-pyridinyl-6-carboxylic acid (4-amino-3-hydroxy-3,4,5,6-tetra-hydro-2H-[1,4′]bipyridinyl-3′-yl)-amide]
< 1 µM: Pim1 kinase; [1] | Pim3 kinase | Pim2 kinase

Nc1ccc(-c2ncccc2F)nc1C(=O)Nc1cnccc1N1CCC(O)C(N)C1 (stereo not drawn) [Example 735, 5-Amino-3′-fluoro-[2,2′]bi-pyridinyl-6-carboxylic acid (3-amino-4-hydroxy-3,4,5,6-tetra-hydro-2H-[1,4′]bipyridinyl-3′-yl)-amide]
< 1 µM: Pim1 kinase; [1] | Pim3 kinase | Pim2 kinase

Cc1ccnc(-c2nc(C(=O)Nc3cnccc3N3CCC[C@H](N)C3)c(N)cc2F)c1F [Example 737, 5-Amino-3,3′-difluoro-4′-methyl-[2,2′]bipyridinyl-6-carboxylic acid (3-amino-3,4,5,6-tetrahydro-2H-[1,4′]bi-pyridinyl-3′-yl)-amide]
< 1 µM: Pim1 kinase; [1] | Pim3 kinase | Pim2 kinase

CCCOc1cncc(-c2nc(C(=O)Nc3cnccc3N3CCC[C@H](N)C3)c(N)cc2F)n1 [Example 738, 3-Amino-5-fluoro-6-(6-propoxy-pyrazin-2-yl)-pyridine-2-carboxylic acid (3-amino-3,4,5,6-tetrahydro-2H-[1,4′]bi-pyridinyl-3′-yl)-amide]
< 1 µM: Pim1 kinase; [1] | Pim3 kinase | Pim2 kinase

CC(C)Oc1cncc(-c2nc(C(=O)Nc3cnccc3N3CCC[C@H](N)C3)c(N)cc2F)n1 [Example 739, 3-Amino-5-fluoro-6-(6-isopropoxy-pyrazin-2-yl)-pyridine-2-carboxylic acid (3-amino-3,4,5,6-tetrahydro-2H-[1,4′]bipyridinyl-3′-yl)-amide]
< 1 µM: Pim1 kinase; [1] | Pim3 kinase | Pim2 kinase

CCOc1cncc(-c2nc(C(=O)Nc3cnccc3N3CCC[C@H](N)C3)c(N)cc2F)n1 [Example 740, 3-Amino-6-(6-ethoxy-pyrazin-2-yl)-5-fluoro-pyridine-2-carboxylic acid (3-amino-3,4,5,6-tetrahydro-2H-[1,4′]bi-pyridinyl-3′-yl)-amide]
< 1 µM: Pim1 kinase; [1] | Pim3 kinase | Pim2 kinase

CC(C)COc1cncc(-c2nc(C(=O)Nc3cnccc3N3CCC[C@H](N)C3)c(N)cc2F)n1 [Example 741, 3Amino-5-fluoro-6-(6-isobutoxy-pyrazin-2-yl)-pyridine-2-carboxylic acid (3-amino-3,4,5,6-tetrahydro-2H-[1,4′]bipyridinyl-3′-yl)-amide]
< 1 µM: Pim1 kinase; [1] | Pim3 kinase | Pim2 kinase

COC(=O)c1nc(-c2nc(C(=O)Nc3cnccc3N3CCC[C@H](N)C3)c(N)cc2F)c(F)cc1N [Example 742, 5,5′-Diamino-6′-(3-amino-3,4,5,6-tetrahydro-2H-[1,4′]bi-pyridinyl-3′-ylcarbamoyl)-3,3′-difluoro-[2,2′]bipyridinyl-6-carboxylic acid methyl ester]
< 1 µM: Pim1 kinase; [1] | Pim3 kinase | Pim2 kinase

Nc1cc(F)c(-c2ncccc2Cl)nc1C(=O)Nc1cnccc1N1CCC[C@H](N)C1 [Example 743, 5-Amino-3′-chloro-3-fluoro-[2,2′]bipyridinyl-6-carboxylic acid (3-amino-3,4,5,6-tetra-hydro-2H-[1,4′]bipyridinyl-3′-yl)-amide]
< 1 µM: Pim1 kinase; [1] | Pim3 kinase | Pim2 kinase

Cc1ccc(F)c(-c2nc(C(=O)Nc3cnccc3N3CCC[C@H](N)C3)c(N)cc2F)n1 [Example 745, 5-Amino-3,3′-difluoro-6′-methyl-[2,2′]bipyridinyl-6-carboxylic acid (3-amino-3,4,5,6-tetrahydro-2H-[1,4′]bi-pyridinyl-3′-yl)-amide]
< 1 µM: Pim1 kinase; [1] | Pim3 kinase | Pim2 kinase

Cc1cc(-c2ccncc2NC(=O)c2nc(-c3ncccc3F)ccc2N)cc(N)n1 [Example 746, 5-Amino-3′-fluoro-[2,2′]bi-pyridinyl-6-carboxylic acid (2′-amino-6′-methyl-[4,4′]bi-pyridinyl-3-yl)-amide]
< 1 µM: Pim1 kinase; [1] | Pim3 kinase | Pim2 kinase

CCCOc1cncc(-c2ccc(N)c(C(=O)Nc3cnccc3N3CCC[C@H](N)C3)n2)n1 [Example 747, 3-Amino-6-(6-propoxy-pyrazin-2-yl)-pyridine-2-carboxylic acid (3-amino-3,4,5,6-tetrahydro-2H-[1,4′]bipyridinyl-3′-yl)-amide]
< 1 µM: Pim1 kinase; [1] | Pim3 kinase | Pim2 kinase

CC(C)Oc1cncc(-c2ccc(N)c(C(=O)Nc3cnccc3N3CCC[C@H](N)C3)n2)n1 [Example 748, 3-Amino-6-(6-isopropoxy-pyrazin-2-yl)-pyridine-2-carboxylic acid (3-amino-3,4,5,6-tetrahydro-2H-[1,4′]bi-pyridinyl-3′-yl)-amide]
< 1 µM: Pim1 kinase; [1] | Pim3 kinase | Pim2 kinase

CCOc1cncc(-c2ccc(N)c(C(=O)Nc3cnccc3N3CCC[C@H](N)C3)n2)n1 [Example 749, 3-Amino-6-(6-ethoxy-pyrazin-2-yl)-pyridine-2-carboxylic acid (3-amino-3,4,5,6-tetrahydro-2H-[1,4′]bipyridinyl-3′-yl)-amide]
< 1 µM: Pim1 kinase; [1] | Pim3 kinase | Pim2 kinase

Nc1ccc(-c2cncc(OCc3ccccc3)n2)nc1C(=O)Nc1cnccc1N1CCC[C@H](N)C1 [Example 750, 3-Amino-6-(6-benzyloxy-pyrazin-2-yl)-pyridine-2-carboxylic acid (3-amino-3,4,5,6-tetrahydro-2H-[1,4′]bi-pyridinyl-3′-yl)-amide]
< 1 µM: Pim1 kinase; [1] | Pim3 kinase | Pim2 kinase
